Experimental data published in patent publication US9476099B2 (TRUSTEES OF DARTMOUTH COLLEGE, priority 2012, dated 2016).
“And” between values parts separate entries of the source, which are not always exact repeats. Equal values may be shown once.

Tested on: NT2/D1-R1 control and DNMT3B knockdown cells
Test: Genome-wide expression analysis with PAM clusters, control and DNMT3B knockdown cells (Tables 8-14)
Settings: sh-3B + aza; 10 nM decitabine, 3 days

SMILES: Nc1ncn([C@H]2C[C@H](O)[C@@H](CO)O2)c(=O)n1 [aza]
- ADAMTSL2 NM_014694 expression Mean: 202.775
- ADM NM_001124 expression Mean: 446.451
- AFMID NM_0010109 expression Mean: 172.091
- AHNAK NM_001620 expression Mean: 254.833
- ANAPC13 NM_015391 expression Mean: 377.446
- ANXA1 NM_000700 expression Mean: 394.045
- ANXA2 NM_0010028 expression Mean: 2283.3
- AW972815 expression Mean: 584.452
- BAG3 NM_004281 expression Mean: 816.89
- BCL11A NM_022893 expression Mean: 345.798
- BIRC5 NM_001168 expression Mean: 423.791
- BTG2 NM_006763 expression Mean: 242.194
- C9orf6 NM_017832 expression Mean: 227.753
- C10orf2 NM_021830 expression Mean: 399.327
- C10orf58 NM_032333 expression Mean: 578.039
- C16orf93 NM_0010149 expression Mean: 214.657
- CA2 NM_000067 expression Mean: 486.868
- CATSPER2 NM_172097 expression Mean: 970.22
- CAV1 NM_001753 expression Mean: 402.328
- CCND1 NM_053056 expression Mean: 1996.23
- CDKN1A NM_000389 expression Mean: 619.606
- CDX1 NM_001804 expression Mean: 237.199
- CEACAM1 NM_0010249 expression Mean: 156.04
- CIRH1A NM_032830 expression Mean: 1424.13
- CLCF1 NM_013246 expression Mean: 200.181
- CLDN10 NM_006984 expression Mean: 222.057
- CNN3 NM_001839 expression Mean: 732.909
- COL7A1 NM_000094 expression Mean: 746.239
- COL17A1 NM_000494 expression Mean: 230.283
- CRABP2 NM_001878 expression Mean: 1011.8
- CRIPT NM_014171 expression Mean: 325.647
- CTNNB1 NM_0010982 expression Mean: 258.366
- CUEDC1 NM_017949 expression Mean: 215.515
- CXCL14 NM_004887 expression Mean: 194.723
- CXXC1 NM_014593 expression Mean: 1121.15
- CXorf40A NM_178124 expression Mean: 203.34
- CYR61 NM_001554 expression Mean: 338.671
- DDX51 NM_175066 expression Mean: 1008.46
- DIMT1L NM_014473 expression Mean: 616.311
- DUSP5 NM_004419 expression Mean: 1159.02
- EBI3 NM_005755 expression Mean: 333.316
- EIF2C2 NM_012154 expression Mean: 367.506
- ELF3 NM_004433 expression Mean: 204.8
- ELF4 NM_001421 expression Mean: 365.338
- EMILIN2 NM_032048 expression Mean: 230.192
- EOMES NM_005442 expression Mean: 289.321
- FAM53C NM_016605 expression Mean: 1227.05
- FAM123B NM_152424 expression Mean: 759.762
- FLJ40504 NM_173624 expression Mean: 1376.6
- FOXO3 NM_201559 expression Mean: 274.369
- GAD1 NM_000817 expression Mean: 204.457
- GAD1 NM_013445 expression Mean: 246.924
- GALNAC4S-6 NM_015892 expression Mean: 540.521
- GEMIN4 NM_015721 expression Mean: 784.75
- GLIPR2 NM_022343 expression Mean: 227.407
- GNL3L NM_019067 expression Mean: 289.661
- GNL3 NM_206826 expression Mean: 1810.36
- GPATCH4 NM_182679 expression Mean: 927.016
- GPER NM_0010399 expression Mean: 176.693
- GPR56 NM_201524 expression Mean: 189.936
- GPR56 NM_201525 expression Mean: 205.229
- GPR177 NM_0010022 expression Mean: 158.032 and 231.861
- GPR177 NM_024911 expression Mean: 239.092
- GTF3C6 NM_138408 expression Mean: 454.993
- H2AFY NM_004893 expression Mean: 843.815
- HARS NM_002109 expression Mean: 1283.03
- HCLS1 NM_005335 expression Mean: 494.474
- HES2 NM_019089 expression Mean: 164.558
- HSPA1A NM_005346 expression Mean: 348.731
- HSPA8 NM_006597 expression Mean: 3799.27
- HSPA8 NM_153201 expression Mean: 4636.48
- HSPH1 NM_006644 expression Mean: 389.459
- ID3 NM_002167 expression Mean: 1623.89
- IER3 NM_003897 expression Mean: 406.859
- IL2RB NM_000878 expression Mean: 175.269
- ITPRIP NM_033397 expression Mean: 226.046
- JTV1 NM_006303 expression Mean: 1336.75
- KAT2A NM_021078 expression Mean: 704.033
- KIAA0101 NM_014736 expression Mean: 230.187
- KRT8 NM_002273 expression Mean: 2758.76
- LEFTY2 NM_003240 expression Mean: 2484.87
